Where two headings read alike, the source gives them in different places.
Columns and labels:
[1] = format: physicochemical
[2] = tested on: Alternaria brassicae; test: In vivo preventive test on Alternaria brassicae (leaf spot on radish); conditions: 500 ppm; radish plants sprayed 24 hours before contamination; grading 5 days after contamination vs control plants
Procedure: Radish plants (“Pernod Clair” variety), sown in starter cups on a 50/50 peat soil-pozzolana substrate and grown at 17° C., are treated at the 2-leaf stage by spraying with the active ingredient prepared as described above. Plants, used as controls, are treated with the mixture of acetone/tween/DMSO/water not containing the active material. After 24 hours, the plants are contaminated by spraying the leaves with an aqueous suspension of Alternaria brassicae spores (50 000 spores per ml). The spores are collected from a 15-day-old culture. […] Grading (% of efficacy) is carried out 5 days after the contamination, in comparison with the control plants.

[3] = tested on: Sphaerotheca fuliginea; test: In vivo preventive test on Sphaerotheca fuliginea (powdery mildew on cucurbits); conditions: 500 ppm; gherkin plants sprayed 24 hours before contamination; grading 12 days after contamination vs control plants
Procedure, shortened: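 Preventive spray of gherkin plants at Z11 cotyledon stage, grown at 24° C; inoculation 24 hours later with Sphaerotheca fuliginea spores (100 000 spores per ml). Efficacy graded 12 days post-inoculation as % versus solvent-treated control plants.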

[4] = tested on: Septoria tritici; test: In vivo preventive test on Septoria tritici (leaf spot on wheat); conditions: 500 ppm; wheat plants sprayed 24 hours before contamination; grading 21 to 28 days after contamination vs control plants
Procedure, shortened: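 Scipion wheat at 1-leaf stage sprayed with compound, controls receiving acetone/tween/DMSO/water vehicle; 24 h later leaves inoculated with Septoria tritici spores (500 000 spores per ml). Efficacy (%) graded versus control plants 21 to 28 days after contamination.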

[5] = tested on: Botrytis cinerea; test: In vivo preventive test on Botrytis cinerea (grey mould); conditions: 500 ppm; gherkin plants sprayed 24 hours before contamination; grading 4-5 days after contamination vs control plants
Procedure, shortened: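 Gherkin plants ("Vert petit de Paris") sprayed with compound at Z11 cotyledon stage, then inoculated 24 h later with B. cinerea spores (50 000/ml) in PDB/fructose/NH4NO3/KH2PO4 nutrient solution. Incubated at 17 °C, 80% RH; % efficacy versus solvent-treated controls graded 4–5 days after contamination.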

[6] = tested on: Puccinia recondita; test: In vivo preventive test on Puccinia recondita (brown rust on wheat); conditions: 500 ppm; wheat plants sprayed 24 hours before contamination; grading 10 days after contamination vs control plants
Procedure: Wheat plants (“Scipion” variety), sown in starter cups on a 50/50 peat soil-pozzolana substrate and grown at 22° C. (12 h)/20° C. (12 h), are treated at the 1-leaf stage (10 cm height) by spraying with the active ingredient prepared as described above. Plants, used as controls, are treated with the mixture of acetone/tween/DMSO/water not containing the active material. After 24 hours, the plants are contaminated by spraying the leaves with an aqueous suspension of Puccinia recondita spores (100 000 spores per ml).

[7] = tested on: Phytophthora infestans; format: in vivo; conditions: 500 ppm; tomato plants sprayed 24 hours before contamination; grading 5 days after contamination vs control plants
[8] = HPLC on reversed phase columns, method [a]: pH 2.7, 0.1% formic acid in water / acetonitrile, linear gradient 10% to 95% acetonitrile
[9] = method [a]: HPLC/LC-MS on reversed phase at pH 2.7, 0.1% formic acid in water / acetonitrile, gradient 10% to 95% acetonitrile
[10] = method [a]: HPLC/LC-MS on reversed phase at pH 2.7, 0.1% formic acid in water / acetonitrile, linear gradient 10% to 95% acetonitrile

Structure (SMILES) | log P [1, 8] | % of efficacy (protection) [2] | % of efficacy (protection) [3] | % of efficacy (protection) [4] | % of efficacy (protection) [5] | % of efficacy (protection) [6] | % of efficacy (protection) [7] | log P [1, 9] | log P [1, 10] | log P ([1]; HPLC on reversed phase columns, method [a]: pH 2.7, 0.1% formic acid in water and acetonitrile, linear gradient 10% to 95% acetonitrile)
CCn1cc(CNC(=O)C2(c3ccccc3)CC(c3ccc4ncc(Br)cc4c3)=NO2)c(C)n1 (stereo not drawn) [compound 278] | 3.18[a] | 86% | 100% | – | – | – | – | – | – | –
C=CC1(C(=O)NCc2cn(CC)nc2C)CC(c2ccc3ncc(Br)cc3c2)=NO1 (stereo not drawn) [compound 599] | 2.61[a] | – | 100% | 100% | 100% | 88% | 85% | – | – | –
CCn1cc(CNC(=O)C2(C)CC(c3ccc4ncc(C)cc4c3)=NO2)c(C)n1 (stereo not drawn) [compound 257] | 1.46^[a] | – | – | – | – | 81% | 100% | – | – | –
CCC#Cc1cnc2ccc(C3=NOC(C)(C(=O)NCc4cn(CC)nc4C)C3)cc2c1 (racemic) [compound 394] | – | – | – | – | – | 92% | – | 2.75[a] | – | –
CC1(C(N)=O)CC(c2ccc3ncc(Br)cc3c2)=NO1 (racemic) [compound 380] | – | – | – | – | – | 78% | – | 1.82[a] | – | –
C#Cc1cnc2ccc(C3=NOC(OC)(C(=O)NC4CC4)C3)cc2c1 (stereo not drawn) [compound 504] | – | – | 100% | 100% | 99% | 72% | – | 2.08[a] | – | –
CSC1(C(=O)NC(C)C)CC(c2ccc3ncc(Br)cc3c2)=NO1 (stereo not drawn) [compound 530] | 2.88[a] | – | – | – | 100% | 79% | – | – | – | –
C#Cc1cnc2ccc(C3=NOC(C)(C(=O)NCc4ncc(C(F)(F)F)cc4Cl)C3)cc2c1 (stereo not drawn) [compound 157] | – | – | – | – | – | 72% | – | – | 3.48^[a] | –
C#Cc1cnc2c(C)cc(C3=NOC(C)(C(=O)NCC4COC(C)(C)O4)C3)cc2c1 (stereo not drawn) [compound 536] | 2.98[a] | – | 100% | 100% | 100% | 72% | – | – | – | –
CCCn1cc(CNC(=O)C2(OC)CC(c3ccc4ncc(Br)cc4c3)=NO2)c(C)n1 (stereo not drawn) [compound 50] | – | – | 100% | 100% | 100% | 88% | 100% | – | – | –
C#Cc1cnc2ccc(C3=NOC(C)(C(=O)NCc4ccc5ncccc5c4)C3)cc2c1 (stereo not drawn) [compound 227] | – | 75% | – | 93% | 92% | – | – | – | 1.59^[a] | –
CC1(C(=O)NC2CC2C2CC2)CC(c2ccc3ncc(Br)cc3c2)=NO1 (stereo not drawn) [compound 215] | – | 75% | – | 86% | 87% | – | – | – | 3.29^[a] | –
CC(C)NC(=O)C1(C)CC(c2ccc3ncc(S(C)(=O)=O)cc3c2)=NO1 (stereo not drawn) [compound 146] | – | – | – | – | – | 72% | 85% | – | 1.81^[a] | –
C#Cc1cnc2ccc(C3=NOC(C)(C(=O)NCc4cnn(C)c4C)C3)cc2c1 (stereo not drawn) [compound 178] | – | 75% | – | 100% | 100% | – | – | – | 1.93^[a] | –
C#Cc1cnc2ccc(C3=NOC(CC)(C(=O)NC(C)C)C3)cc2c1 (racemic) [compound 446] | – | – | 94% | 100% | 98% | 83% | – | 2.76[a] | – | –
CCCn1cc(CNC(=O)C2(OC)CC(c3cc(Cl)c4ncc(Br)cc4c3)=NO2)c(C)n1 (stereo not drawn) [compound 567] | 3.08[a] | – | 100% | 100% | 100% | 75% | – | – | – | –
C#Cc1cnc2ccc(C3=NOC(OC)(C(=O)N4CCCCO4)C3)cc2c1 (racemic) [compound 457] | – | – | – | 88% | – | 83% | – | 2.41[a] | – | –

Structure (SMILES) | log P [1, 8] | % of efficacy (protection) [2] | % of efficacy (protection) [3] | % of efficacy (protection) [4] | % of efficacy (protection) [5] | % of efficacy (protection) [6] | % of efficacy (protection) [7] | log P [1, 9] | log P [1, 10] | log P ([1]; HPLC on reversed phase columns, method [a]: pH 2.7, 0.1% formic acid in water and acetonitrile, linear gradient 10% to 95% acetonitrile)
C#Cc1cnc2ccc(C3=NOC(C)(C(=O)NCC4OCCc5ccccc54)C3)cc2c1 (single isomer, unassigned) [compound 262] | 3.13^[a] | – | – | – | 95% | 81% | – | – | – | –
CC1(C(=O)NC2CCC2)CC(c2ccc3ncc(I)cc3c2)=NO1 (racemic) [compound 454] | – | – | – | – | – | 94% | – | 3.06[a] | – | –
CCOCCCNC(=O)C1(C)CC(c2ccc3ncc(I)cc3c2)=NO1 (racemic) [compound 456] | – | – | 98% | 100% | 98% | 83% | – | 2.86[a] | – | –
C#Cc1cnc2ccc(C3=NOC(C)(C(=O)NCC4CCOC4)C3)cc2c1 (stereo not drawn) [compound 214] | – | 75% | 78% | 100% | 100% | – | – | – | 1.98^[a] | –
C#Cc1cnc2ccc(C3=NOC(OC)(C(=O)N(CC(F)F)C(C)C)C3)cc2c1 (stereo not drawn) [compound 469] | – | – | – | 97% | – | 80% | – | 3.60[a] | – | –
CCCn1cc(CNC(=O)C2(CC3CC3)CC(c3ccc4ncc(Br)cc4c3)=NO2)c(C)n1 (stereo not drawn) [compound 424] | – | – | – | – | – | 72% | – | 3.33[a] | – | –
C#Cc1cnc2ccc(C3=NOC(C)(C(=S)NCc4cnn(C)c4)C3)cc2c1 (racemic) [compound 451] | – | – | – | 94% | – | 89% | – | 2.62[a] | – | –
CCn1cc(CNC(=O)C2(C(F)F)CC(c3ccc4ncc(I)cc4c3)=NO2)c(C)n1 (stereo not drawn) [compound 617] | 2.73[a] | – | 100% | – | 95% | 71% | – | – | – | –
CC1(C(=O)NC2CCC2)CC(c2ccc3ncc(Br)cc3c2)=NO1 (stereo not drawn) [compound 234] | 2.9^[a] | 75% | 94% | 86% | 99% | – | – | – | – | –
C#Cc1cnc2ccc(C3=NOC(C)(C(=O)NCc4cnn(C)c4)C3)cc2c1 (stereo not drawn) [compound 180] | – | 75% | 98% | 100% | 95% | – | 86% | – | 1.86^[a] | –
C#Cc1cnc2ccc(C3=NOC(C)(C(=O)NCc4cccs4)C3)cc2c1 (stereo not drawn) [compound 162] | – | 88% | 94% | 86% | 99% | – | – | – | 2.73^[a] | –
CCn1cc(CNC(=O)C2(C)CC(c3cc(Cl)c4ncc(Br)cc4c3)=NO2)c(C)n1 (racemic) [compound 548] | 2.77[a] | – | 80% | 100% | 94% | 83% | – | – | – | –
CC(C)NC(=O)C1(C)ON=C(c2ccc3ncc(Br)cc3c2)C1C(F)(F)F (stereo not drawn) [compound 423] | – | 83% | – | – | – | 78% | – | 3.71[a] | – | –
CCn1cc(CNC(=O)C2(C)CC(c3ccc4ncc(OC)cc4c3)=NO2)c(C)n1 (stereo not drawn) [compound 135] | – | 100% | – | 100% | – | 89% | – | – | 1.83^[a] | –
C#Cc1cnc2ccc(C3=NOC(C=C)(C(=O)NCc4cn(CC)nc4C)C3)cc2c1 (stereo not drawn) [compound 724] | – | – | 100% | 100% | 98% | 71% | 100% | – | – | 2.37[a]
C#Cc1cnc2ccc(C3=NOC(C)(C(=O)NCc4noc(C)n4)C3)cc2c1 (stereo not drawn) [compound 170] | – | 81% | – | 71% | 100% | – | – | – | 1.99^[a] | –
